Laboratory results: patent US11198692B2, “Dihydro-pyrrolo-pyridine derivatives” (Pfizer Inc., priority 2017, dated 2021)

Molecular target: T1, Human M4 receptors (Homo sapiens, UniProt P08173)
T1 construct: expressed in transfected cells
T1 sequence (P08173 1-479): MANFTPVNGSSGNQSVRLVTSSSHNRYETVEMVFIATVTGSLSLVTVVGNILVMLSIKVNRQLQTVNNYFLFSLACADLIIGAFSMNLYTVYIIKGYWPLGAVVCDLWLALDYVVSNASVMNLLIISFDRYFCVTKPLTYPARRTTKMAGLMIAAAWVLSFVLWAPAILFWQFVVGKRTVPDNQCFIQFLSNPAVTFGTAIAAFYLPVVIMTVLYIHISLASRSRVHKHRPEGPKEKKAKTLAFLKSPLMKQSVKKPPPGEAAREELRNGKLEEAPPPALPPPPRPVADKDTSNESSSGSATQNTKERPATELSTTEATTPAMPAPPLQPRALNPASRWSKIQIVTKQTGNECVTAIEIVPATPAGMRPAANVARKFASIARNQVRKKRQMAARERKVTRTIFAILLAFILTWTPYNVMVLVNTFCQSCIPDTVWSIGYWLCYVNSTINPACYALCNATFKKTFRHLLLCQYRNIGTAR
Experiment: M4 PAM cAMP assay (GloSensor)
Format: cell-based
Details: HEK293 GloSensor cells expressing hM4, with EC20 acetylcholine and isoproterenol, geometric mean of 2-4 determinations unless footnoted (b: >=5, c: single); for Emax / EC50 Mean Asymptote Maximum (%): Emax = maximum asymptote of fitted dose response curve; for Emax: read-out: EC50 Mean Asymptote Maximum (%)
Procedure: The M4 cAMP assay was designed to determine the potency and efficacy of muscarinic positive allosteric modulators (PAMs). Human M4 receptors were stably expressed in Human embryonic kidney (HEK293) cells expressed with the Promega GloSensor™ cAMP technology.
HEK293 GloSensor cells expressing hM4 cells were cultured in growth media containing DMEM with 10% FBS, 1% Penicillin/Streptomycin, 500 μg/mL G418, 200 μg/mL Hygomycin B, and 1% Glutamax. When cells had grown to 80%-90% confluency, cells were harvested and seeded at a density of 25,000 cells/40 μL well, in a 384 white walled plates (Becton Dickinson 356661). Plates were incubated at 37 degrees C. and 5% CO2 for use after 24 hours.
Compound Preparation for Activator Screen:
Test compounds were initially prepared as 100% DMSO stock solutions, then transferred and serially diluted in 384-well compound plates (Matrix #4325). Each compound was tested at 10 concentrations in duplicate per experiment. Compound plates are spotted with 0.2 μL/well activator at 400 times the final assay concentration. Positive and negative controls for the compound alone activator response was 10 μM acetylcholine (Sigma # A2661) and DMSO, respectively. EC20 of acetylcholine was also used to define PAM activities.
Promega GloSensor™reagent (Promega # E1291) had previously been aliquotted. For each experiment, a stock solution of GloSensor™ was thawed out and equilibration medium was prepared with 88% CO2-independent media (Invitrogen #18045088), 10% fetal bovine serum and 2% GloSensor™ cAMP Reagent stock solution. Stock solution was mixed. Culture media in cell plates was discarded, then replaced with 40 μL/well pre-warmed equilibration media, then incubated in the dark at room temperature for 2 hours. During the incubation, stimulation media containing agonist and EC20 acetylcholine was prepared. CO2-independent media containing 50 […] Isoproterenol representing an EC80 of b-adrenergic receptor activity (Sigma #16504, 400 times final concentration) and EC20 acetylcholine in 1.25% DMSO was added to all columns of the compound plate, with the exception of column 12 to allow for EC0 control. […] Compounds are now 5 times the final assay concentration. The plate was mixed using a plate agitator. At the end of the 2 hour GloSensor™ incubation, add 10 μL of the CO2-independent media containing agonist, EC20 acetylcholine and isoproterenol to the cell plate. Cell plate was then incubated for 10 minutes at room temperature, and then read using an EnVision plate reader (Perkin Elmer).
Data was exported from the EnVision plate reader. The percent effect for each well was determined using the mean values for the positive and negative controls on each plate for each read, specifically 100*(compound−negative control)/(positive control−negative control). Dose response curves were fitted to the compound percent effect data using a 4-parameter logistic fit model. Data was reported as EC50 and Emax, with the Emax as the maximum asymptote of the fitted dose response curve.

Structure (SMILES)	Emax [%]	EC50 [nM]	EC50 Mean Asymptote Maximum (%)
Cc1nc(N)c2c(c1C)CN(C(=O)C[C@@H]1C[C@H]1c1ccc(F)nc1)C2 (single isomer, unassigned) [Example 8, 1-(4-Amino-6,7-dimethyl-1,3-dihydro-2H-pyrrolo[3,4-c]pyridin-2-yl)-2-[trans-2-(6-fluoropyridin-3-yl)cyclopropyl]ethanone]	99	1.24	–
CNc1nc(C)c(C)c2c1CN(C(=O)CC1CN(c3ccnc(C(F)(F)F)c3)C1)C2 [Example 34, 1-[6,7-dimethyl-4-(methylamino)-1,3-dihydro-2H-pyrrolo[3,4-c]pyridin-2-yl]-2-{1-[2-(trifluoromethyl)pyridin-4-yl]azetidin-3-yl}ethanone]	95.9	1.3	–
Cc1c2c(c(=O)n(C)c1C)CN(C(=O)C[C@@H]1C[C@H]1c1cccnc1)C2 (single isomer, unassigned) [Example 27, 5,6,7-trimethyl-2-{[trans-2-(pyridin-3-yl)cyclopropyl]acetyl}-1,2,3,5-tetrahydro-4H-pyrrolo[3,4-c]pyridin-4-one]	–	9.99	95.3%
CNc1nc(C)c(C)c2c1CN(C(=O)OC1CN(c3cccnc3)C1)C2 [Example 5, 1-(Pyridin-3-yl)azetidin-3-yl 6,7-dimethyl-4-(methylamino)-1,3-dihydro-2H-pyrrolo[3,4-c]pyridine-2-carboxylate]	96.8	1.22	–
CNc1nc(C)c(C)c2c1CN(C(=O)CC1CN(c3ccncn3)C1)C2 [Example 23, 1-[6,7-dimethyl-4-(methylamino)-1,3-dihydro-2H-pyrrolo[3,4-c]pyridin-2-yl]-2-[1-(pyrimidin-4-yl)azetidin-3-yl]ethanone]	95.9	1.44	–
Cc1nc(N)c2c(c1C)CN(C(=O)C[C@@H]1C[C@H]1c1ccc(F)nc1)C2 (relative stereo) [Example 7, 1-(4-Amino-6,7-dimethyl-1,3-dihydro-2H-pyrrolo[3,4-c]pyridin-2-yl)-2-[trans-2-(6-fluoropyridin-3-yl)cyclopropyl]ethanone]	109	6.45	–
CNc1nc(C)c(C)c2c1CN(C(=O)C[C@@H]1C[C@H]1c1cccnc1)C2 (single isomer, unassigned) [Example 10, 1-[6,7-Dimethyl-4-(methylamino)-1,3-dihydro-2H-pyrrolo[3,4-c]pyridin-2-yl]-2-[trans-2-(pyridin-3-yl)cyclopropyl]ethanone]	114	197	–
Cc1c2c(c(=O)n(C)c1C)CN(C(=O)C[C@@H]1C[C@H]1c1cccnc1)C2 (single isomer, unassigned) [Example 26, 5,6,7-trimethyl-2-{[trans-2-(pyridin-3-yl)cyclopropyl]acetyl}-1,2,3,5-tetrahydro-4H-pyrrolo[3,4-c]pyridin-4-one]	90.8	2140	–
Cc1nc(C)c2c(c1C)CN(C(=O)CC1CN(c3cccnc3)C1)C2 [Example 12, 2-[1-(Pyridin-3-yl)azetidin-3-yl]-1-(4,6,7-trimethyl-1,3-dihydro-2H-pyrrolo[3,4-c]pyridin-2-yl)ethanone]	89.3	19.9	–
Cc1nc(N)c2c(c1C)CN(C(=O)C[C@@H]1C[C@H]1c1ccc(F)nc1)C2 (single isomer, unassigned) [Example 9, 1-(4-Amino-6,7-dimethyl-1,3-dihydro-2H-pyrrolo[3,4-c]pyridin-2-yl)-2-[trans-2-(6-fluoropyridin-3-yl)cyclopropyl]ethanone]	–	99.4	111%
CNc1nc(C)c(C)c2c1CN(C(=O)C[C@@H]1C[C@H]1c1cncnc1)C2 (single isomer, unassigned) [Example 30, 1-[6,7-dimethyl-4-(methylamino)-1,3-dihydro-2H-pyrrolo[3,4-c]pyridin-2-yl]-2-[trans-2-(pyrimidin-5-yl)cyclopropyl]ethanone]	–	1.58	95.1%
Cc1nc(C(F)F)c2c(c1C)CN(C(=O)CC1CN(c3cccnc3)C1)C2 [Example 18, 1-[4-(difluoromethyl)-6,7-dimethyl-1,3-dihydro-2H-pyrrolo[3,4-c]pyridin-2-yl]-2-[1-(pyridin-3-yl)azetidin-3-yl]ethanone]	91.7	23.6	–

The remaining lines, values ahead:

Emax [%]	EC50 [nM]	EC50 Mean Asymptote Maximum (%)	Structure (SMILES)
–	3670	152^c %	CNc1nc(C)c(C)c2c1CN(C(=O)CC1CN(c3ccnc(C(F)(F)F)c3)C1)C2C (single isomer, unassigned) [Example 43, 2-{1-[2-(trifluoromethyl)pyridin-4-yl]azetidin-3-yl}-1-[1,6,7-trimethyl-4-(methylamino)-1,3-dihydro-2H-pyrrolo[3,4-c]pyridin-2-yl]ethanone]
97	30.9	–	CNc1nc(C)c(C)c2c1CN(C(=O)CC1Cc3ccc(F)cc3C1)C2 (single isomer, unassigned) [Example 57, 1-[6,7-dimethyl-4-(methylamino)-1,3-dihydro-2H-pyrrolo[3,4-c]pyridin-2-yl]-2-(5-fluoro-2,3-dihydro-1H-inden-2-yl)ethanone]
95.5	149	–	CNc1nc(C)c(C)c2c1CN(C(=O)[C@@H]1CCOC1)C2 [Example 59, [6,7-dimethyl-4-(methylamino)-1,3-dihydro-2H-pyrrolo[3,4-c]pyridin-2-yl][(3R)-tetrahydrofuran-3-yl]methanone]
–	> 10000	–	CNc1nc(C)c(C)c2c1CN(C(=O)C[C@@H]1C[C@H]1c1ccc(C)nc1)C2 (single isomer, unassigned) [Example 46, 1-[6,7-dimethyl-4-(methylamino)-1,3-dihydro-2H-pyrrolo[3,4-c]pyridin-2-yl]-2-[trans-2-(6-methylpyridin-3-yl)cyclopropyl]ethanone]
–	754	140^c %	CNc1nc(C)c(C)c2c1CN(C(=O)CC1CN(c3ccnc(OC(F)F)c3)C1)C2C (single isomer, unassigned) [Example 49, 2-{1-[2-(difluoromethoxy)pyridin-4-yl]azetidin-3-yl}-1-[1,6,7-trimethyl-4-(methylamino)-1,3-dihydro-2H-pyrrolo[3,4-c]pyridin-2-yl]ethanone]
97.7	13.6	–	CNc1nc(C)c(C)c2c1CN(C(=O)CC1CN(c3ccnc(C)c3)C1)C2 [Example 35, 1-[6,7-dimethyl-4-(methylamino)-1,3-dihydro-2H-pyrrolo[3,4-c]pyridin-2-yl]-2-[1-(2-methylpyridin-4-yl)azetidin-3-yl]ethanone]
–	783	145^c %	CNc1nc(C)c(C)c2c1CN(C(=O)C[C@@H]1C[C@H]1c1ccc(F)cc1)C2 (single isomer, unassigned) [Example 41, 1-[6,7-dimethyl-4-(methylamino)-1,3-dihydro-2H-pyrrolo[3,4-c]pyridin-2-yl]-2-[trans-2-(4-fluorophenyl)cyclopropyl]ethanone]
96.2	95.2	–	CNc1nc(C)c(C)c2c1CN(C(=O)C1CC1)C2 [Example 58, cyclopropyl[6,7-dimethyl-4-(methylamino)-1,3-dihydro-2H-pyrrolo[3,4-c]pyridin-2-yl]methanone]
